In PubChem BioAssay (NCI):
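Each compound was tested at five concentrations against cells in 96-well plates for 48 hours. TGI marks complete inhibition of growth.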

Tests used:
Assay in all cases: DTP human tumour cell line panel, 48 h
[1] = tested on: K-562 leukemia
[2] = tested on: 786-0 renal
[3] = tested on: SR leukemia
[4] = tested on: HOP-62 NSCLC
[5] = tested on: NCI-H226 lung
[6] = tested on: HCT-116 colon
[7] = tested on: SF-268 CNS
[8] = tested on: EKVX NSCLC
[9] = tested on: COLO 205 colon
[10] = tested on: NCI-H522 lung
[11] = tested on: SK-OV-3 ovarian
[12] = tested on: M14 melanoma

Nc1ccc(-c2nc3ccccc3s2)cc1Cl
TGI [1]: > 100 µM
TGI [2]: > 100 µM
TGI [3]: > 100 µM
TGI [4]: 72.8 µM
TGI [5]: > 100 µM
TGI [6]: > 100 µM
TGI [7]: > 100 µM
TGI [8]: > 100 µM
TGI [9]: > 100 µM
TGI [10]: > 100 µM
TGI [11]: > 100 µM
TGI [12]: > 100 µM

Cc1ccc(S(=O)(=O)NC(CCC(=O)NNc2ccccc2)C(=O)NNc2ccccc2)cc1 (stereo unspecified)
TGI [1]: > 100 µM
TGI [2]: > 100 µM
TGI [3]: > 100 µM
TGI [4]: > 100 µM
TGI [5]: > 100 µM
TGI [6]: > 100 µM
TGI [7]: > 100 µM
TGI [8]: > 100 µM
TGI [9]: 54.1 µM
TGI [10]: > 100 µM
TGI [11]: > 100 µM
TGI [12]: 78.8 µM

Cc1cc(-n2nnc(C(=O)O)c2-c2ccccc2)c2ccc(Cl)cc2n1
TGI [1]: > 100 µM
TGI [2]: > 100 µM
TGI [5]: > 100 µM
TGI [6]: > 100 µM
TGI [7]: > 100 µM
TGI [8]: > 100 µM
TGI [9]: > 100 µM
TGI [10]: > 100 µM
TGI [11]: > 100 µM
TGI [12]: > 100 µM

NCCCN(CCCCN(CCCN)C(=O)OCc1ccccc1)C(=O)OCc1ccccc1
TGI [1]: > 100 µM
TGI [2]: > 100 µM
TGI [4]: > 100 µM
TGI [5]: > 100 µM
TGI [6]: > 100 µM
TGI [7]: > 100 µM
TGI [8]: > 100 µM
TGI [9]: > 100 µM
TGI [10]: 85.4 µM
TGI [11]: > 100 µM
TGI [12]: > 100 µM

O=C(c1ccccc1)c1ccc2nc(-c3c(Cl)c(Cl)c(Cl)c(Cl)c3-c3nnc(-c4ccccc4)o3)[nH]c2c1
TGI [1]: > 100 µM
TGI [2]: > 100 µM
TGI [3]: 50.2 µM
TGI [4]: > 100 µM
TGI [5]: 97.7 µM
TGI [6]: > 100 µM
TGI [7]: > 100 µM
TGI [8]: > 100 µM
TGI [9]: > 100 µM
TGI [10]: 55.7 µM
TGI [11]: > 100 µM
TGI [12]: > 100 µM

COC(=O)[C@H](Cc1c[nH]c2ccccc12)NP(=O)(OCCC#N)OCC1OC(n2cc(C)c(=O)[nH]c2=O)CC1N=[N+]=[N-] (stereo partly specified)
TGI [1]: > 100 µM
TGI [2]: > 100 µM
TGI [4]: > 100 µM
TGI [5]: > 100 µM
TGI [6]: > 100 µM
TGI [7]: > 100 µM
TGI [8]: > 100 µM
TGI [9]: > 100 µM
TGI [10]: > 100 µM
TGI [11]: > 100 µM
TGI [12]: > 100 µM

CC1CC/C(=C\c2ccc(F)cc2)C2=C1C(c1ccc(F)cc1)N1C(=O)CSC1=N2 (stereo unspecified)
TGI [1]: > 100 µM
TGI [2]: > 100 µM
TGI [5]: > 100 µM
TGI [6]: > 100 µM
TGI [7]: > 100 µM
TGI [8]: > 100 µM
TGI [9]: > 100 µM
TGI [11]: > 100 µM
TGI [12]: > 100 µM

Cc1cc(S(=O)(=O)Nc2nc3ncccc3[nH]2)c(S)cc1Cl
TGI [1]: > 100 µM
TGI [2]: > 100 µM
TGI [3]: > 100 µM
TGI [4]: > 100 µM
TGI [5]: > 100 µM
TGI [6]: > 100 µM
TGI [7]: > 100 µM
TGI [8]: > 100 µM
TGI [9]: > 100 µM
TGI [10]: > 100 µM
TGI [11]: > 100 µM
TGI [12]: > 100 µM

O=C1CCCNn2c(nc3ncccc3c2=O)N1
TGI [1]: > 100 µM
TGI [2]: > 100 µM
TGI [4]: > 100 µM
TGI [5]: > 100 µM
TGI [6]: > 100 µM
TGI [7]: > 100 µM
TGI [8]: > 100 µM
TGI [9]: > 100 µM
TGI [10]: > 100 µM
TGI [11]: > 100 µM
TGI [12]: > 100 µM

O=C(CCN1CCOCC1)/C(=C/c1ccccc1)c1ccccc1
TGI [1]: 4.24 µM
TGI [4]: 45.8 µM
TGI [5]: 21.3 µM
TGI [6]: 12.3 µM
TGI [7]: 19 µM
TGI [8]: 23.9 µM
TGI [9]: 14.3 µM
TGI [10]: 3.84 µM
TGI [11]: 43.3 µM

Cc1ccc(S(=O)(=O)NC(=O)NC(Cc2ccc(O)cc2)C(=O)O)cc1 (stereo unspecified)
TGI [1]: > 100 µM
TGI [2]: > 100 µM
TGI [3]: > 100 µM
TGI [4]: > 100 µM
TGI [6]: > 100 µM
TGI [7]: > 100 µM
TGI [9]: > 100 µM
TGI [10]: > 100 µM
TGI [11]: > 100 µM
TGI [12]: > 100 µM

Cc1nc2cc(F)c(F)cc2[nH]c1=O
TGI [1]: > 100 µM
TGI [2]: > 100 µM
TGI [4]: > 100 µM
TGI [5]: > 100 µM
TGI [6]: > 100 µM
TGI [7]: > 100 µM
TGI [8]: > 100 µM
TGI [9]: > 100 µM
TGI [11]: > 100 µM
TGI [12]: > 100 µM

COC(C/C(=C/CO[Si](C(C)C)(C(C)C)C(C)C)C(=O)N(COCC[Si](C)(C)C)c1ccccc1I)OC
TGI [1]: > 100 µM
TGI [2]: > 100 µM
TGI [3]: > 100 µM
TGI [4]: > 100 µM
TGI [5]: > 100 µM
TGI [6]: 46.2 µM
TGI [9]: > 100 µM
TGI [11]: > 100 µM
TGI [12]: > 100 µM

O=P1(N2CCOCC2)OCCO1
TGI [1]: > 100 µM
TGI [2]: > 100 µM
TGI [3]: > 100 µM
TGI [6]: > 100 µM
TGI [7]: > 100 µM
TGI [8]: > 100 µM
TGI [9]: > 100 µM
TGI [10]: > 100 µM
TGI [12]: > 100 µM

CC(C)(C)C1CCC2c3c([nH]c4ccccc34)C3C(=O)N(c4ccc(C#N)cc4)C(=O)C3C2C1 (stereo unspecified)
TGI [1]: 30.4 µM
TGI [2]: 33.7 µM
TGI [3]: > 100 µM
TGI [4]: 31.2 µM
TGI [5]: 42.1 µM
TGI [6]: 18 µM
TGI [7]: 29.3 µM
TGI [8]: 41.2 µM
TGI [9]: > 100 µM
TGI [11]: > 100 µM
TGI [12]: 72.6 µM

ClC(Cl)(Cl)C1CCOC1n1nnc2ccccc21 (stereo unspecified)
TGI [1]: 63.9 µM
TGI [2]: > 100 µM
TGI [4]: > 100 µM
TGI [5]: > 100 µM
TGI [6]: > 100 µM
TGI [7]: > 100 µM
TGI [8]: > 100 µM
TGI [9]: > 100 µM
TGI [10]: > 100 µM
TGI [11]: > 100 µM
TGI [12]: > 100 µM

COc1ccccc1-n1c(=O)n(C)c(=O)n1C(C)(C)C
TGI [1]: > 100 µM
TGI [2]: > 100 µM
TGI [3]: > 100 µM
TGI [5]: > 100 µM
TGI [6]: > 100 µM
TGI [7]: > 100 µM
TGI [8]: > 100 µM
TGI [9]: > 100 µM
TGI [10]: > 100 µM
TGI [11]: > 100 µM
TGI [12]: > 100 µM

CC1CC[C@@]2(OC1)O[C@H]1[C@H](O)[C@H]3[C@@H]4CC[C@H]5C[C@@H](OC6OC(CO)C(OC7OC(CO)C(O)C(OC8OCC(O)C(O)C8O)C7OC7OC(CO)C(O)C(O)C7OC7OC(CO)C(O)C(O)C7O)C(O)C6O)[C@H](O)C[C@]5(C)[C@H]4CC[C@]3(C)[C@H]1[C@@H]2C (stereo partly specified)
TGI [1]: > 10 µM
TGI [2]: 9.37 µM
TGI [4]: > 10 µM
TGI [5]: > 10 µM
TGI [6]: > 10 µM
TGI [7]: > 10 µM
TGI [8]: > 10 µM
TGI [9]: > 10 µM
TGI [10]: 6.87 µM
TGI [12]: > 10 µM

COc1ccc(C#Cn2nnc3ccccc32)cc1
TGI [1]: > 100 µM
TGI [2]: > 100 µM
TGI [3]: > 100 µM
TGI [4]: > 100 µM
TGI [5]: > 100 µM
TGI [6]: > 100 µM
TGI [7]: > 100 µM
TGI [8]: > 100 µM
TGI [9]: > 100 µM
TGI [10]: > 100 µM
TGI [12]: > 100 µM
